Source: publication PMC8286840, “Identifying SARS-CoV-2 antiviral compounds by screening for small molecule inhibitors of Nsp3 papain-like protease” (Biochemical Journal, 2021)
Counter-ions that a name gives are not always drawn. Like-named read-outs stand apart in the source and are kept apart here.

Experiments:
[1] = target: T1, SARS-CoV-2 PLpro (nsp3 1564–1878) (Severe acute respiratory syndrome coronavirus 2, UniProt P0DTD1); assay: biochemical; parameters: FRET-quenched peptide (Pro3) cleavage by PLpro, 10 min pre-incubation, slope over 20 min, normalised to no-compound control; details: read-out: % of control remaining
[2] = target: T1, SARS-CoV-2 PLpro (nsp3 1564–1878); assay: biochemical; parameters: FRET-quenched peptide (Pro3) cleavage by PLpro, 10 min pre-incubation, slope over 20 min, normalised to no-compound control; details: read-out: % of control remaining; remark: listed apart in the source

NC(=O)COc1c(F)cc(SCCNS(=O)(=O)c2ccccc2)cc1F
remaining activity at 1.25 µM ([1]; Well no.=5925, low concentration screen): 94.7% | remaining activity at 3.75 µM ([2]; Well no.=5925, high concentration screen): 93.7%

C[C@]1(C(=O)O)CCC[C@]2(C)c3cc(O)ccc3CC[C@@H]12 [Podocarpic acid]
remaining activity at 1.25 µM ([1]; Well no.=3296, low concentration screen): 94% | remaining activity at 3.75 µM ([2]; Well no.=3296, high concentration screen): 96.2%

CC(=O)N1CCN(C(=O)/C=C/c2ccc(Sc3ccccc3C(C)C)c([N+](=O)[O-])c2)CC1 [4-[(1E)-3-(4-acetyl-1-piperazinyl)-3-oxo-1-propenyl]-2-nitrophenyl 2-isopropylphenyl sulfide]
remaining activity at 1.25 µM ([1]; Well no.=5662, low concentration screen): 94.9% | remaining activity at 3.75 µM ([2]; Well no.=5662, high concentration screen): 94.5%

NC[C@H]1O[C@H](O[C@H]2[C@H](O)[C@@H](O[C@H]3O[C@H](CO)[C@@H](O)[C@H](N)[C@H]3O)[C@H](N)C[C@@H]2N)[C@H](O)[C@@H](O)[C@@H]1O [Kanamycin sulfate]
remaining activity at 1.25 µM ([1]; Well no.=3428, low concentration screen): 97.3% | remaining activity at 3.75 µM ([2]; Well no.=3428, high concentration screen): 96.2%

CN(C)CCC[C@@]1(c2ccc(F)cc2)OCc2cc(C#N)ccc21 [Escitalopram]
remaining activity at 1.25 µM ([1]; Well no.=1880, low concentration screen): 95.4% | remaining activity at 3.75 µM ([2]; Well no.=1880, high concentration screen): 94.3%

CC(=O)SCC(Cc1ccccc1)C(=O)NCC(=O)OCc1ccccc1 (centres unmarked) [Racecadotril]
remaining activity at 1.25 µM ([1]; Well no.=2191, low concentration screen): 97.6% | remaining activity at 3.75 µM ([2]; Well no.=2191, high concentration screen): 95.7%

C[C@H]1OC[C@@H](C[N+](C)(C)C)O1 [(+)-cis-Dioxolane iodide]
remaining activity at 1.25 µM ([1]; Well no.=579, low concentration screen): 103% | remaining activity at 3.75 µM ([2]; Well no.=579, high concentration screen): 100%

Cc1ccc(-c2c(-c3nn(C)c4ncnc(N5CC[C@H](N6CCCCC6)C5)c34)cnn2C)cc1 [CYP3cide]
remaining activity at 1.25 µM ([1]; Well no.=5646, low concentration screen): 95.6% | remaining activity at 3.75 µM ([2]; Well no.=5646, high concentration screen): 91.1%

CC(C)=CCCC1=CC(=O)c2c(O)ccc(O)c2C1=O [Deoxyshikonin]
remaining activity at 1.25 µM ([1]; Well no.=3164, low concentration screen): 86.1% | remaining activity at 3.75 µM ([2]; Well no.=3164, high concentration screen): 85.7%

COc1cc(-c2ccc(=O)[nH]n2)ccc1OC(F)F [Zardaverine]
remaining activity at 1.25 µM ([1]; Well no.=1438, low concentration screen): 95.5% | remaining activity at 1.25 µM ([1]; Well no.=2190, low concentration screen): 97.5% | remaining activity at 3.75 µM ([2]; Well no.=1438, high concentration screen): 94.9% | remaining activity at 3.75 µM ([2]; Well no.=2190, high concentration screen): 98.2%

COC(=O)[C@H](Cc1c[nH]c2ccccc12)N(Cc1ccccc1)Cc1ccccc1 [TRPM8 antagonist 2]
remaining activity at 1.25 µM ([1]; Well no.=7732, low concentration screen): 95.3% | remaining activity at 3.75 µM ([2]; Well no.=7732, high concentration screen): 97.5%

CN(C)CCCN1c2ccccc2CCc2ccccc21 [Imipramine hydrochloride]
remaining activity at 1.25 µM ([1]; Well no.=1061, low concentration screen): 100% | remaining activity at 3.75 µM ([2]; Well no.=1061, high concentration screen): 97.7%

O=C(NC(Cc1cc(=O)[nH]c2ccccc12)C(=O)O)c1ccc(Cl)cc1 (centres unmarked) [Rebamipide]
remaining activity at 1.25 µM ([1]; Well no.=2197, low concentration screen): 99.1% | remaining activity at 1.25 µM ([1]; Well no.=6992, low concentration screen): 95.1% | remaining activity at 3.75 µM ([2]; Well no.=2197, high concentration screen): 98.5% | remaining activity at 3.75 µM ([2]; Well no.=6992, high concentration screen): 98.9%

C#C[C@]1(O)CC[C@H]2[C@@H]3CCc4cc(OC)ccc4[C@H]3CC[C@@]21C [Mestranol]
remaining activity at 1.25 µM ([1]; Well no.=4768, low concentration screen): 101% | remaining activity at 3.75 µM ([2]; Well no.=4768, high concentration screen): 102%

NC(=O)N1c2ccccc2CC(=O)c2ccccc21 [Oxcarbazepine]
remaining activity at 1.25 µM ([1]; Well no.=2053, low concentration screen): 103% | remaining activity at 3.75 µM ([2]; Well no.=2053, high concentration screen): 104%

CCCCOc1nc(N)c2c(n1)N(Cc1cccc(CN3CCCC3)c1)CC(=O)N2 [Vesatolimod]
remaining activity at 1.25 µM ([1]; Well no.=8127, low concentration screen): 105% | remaining activity at 3.75 µM ([2]; Well no.=8127, high concentration screen): 102%

COc1ccccc1N1CCN(CCCCN2C(=O)c3ccccc3C2=O)CC1 [NAN-190 (hydrobromide)]
remaining activity at 1.25 µM ([1]; Well no.=7191, low concentration screen): 98.5% | remaining activity at 3.75 µM ([2]; Well no.=7191, high concentration screen): 94.2%

CCCCc1ccc(NS(=O)(=O)c2ccc(F)cc2)cc1 [DC260126]
remaining activity at 1.25 µM ([1]; Well no.=6272, low concentration screen): 94.7% | remaining activity at 3.75 µM ([2]; Well no.=6272, high concentration screen): 94.3%

CN1CCC[C@H]1c1cccnc1 [(-)-Nicotine]
remaining activity at 1.25 µM ([1]; Well no.=3328, low concentration screen): 96.5% | remaining activity at 3.75 µM ([2]; Well no.=3328, high concentration screen): 99.2%

COc1ccc2c(OC)c3ccoc3nc2c1OC [Skimmianine]
remaining activity at 1.25 µM ([1]; Well no.=3201, low concentration screen): 112% | remaining activity at 3.75 µM ([2]; Well no.=3201, high concentration screen): 109%

CCNC(=O)Nc1ccc(-c2nc3c(c(N4CCOC[C@@H]4C)n2)CCN(C2COC2)C3)cc1 [GDC-0349]
remaining activity at 1.25 µM ([1]; Well no.=5220, low concentration screen): 97.8% | remaining activity at 3.75 µM ([2]; Well no.=5220, high concentration screen): 95.1%

CNC(=O)[C@H]1O[C@@H](n2cnc3c(N)ncnc32)[C@H](O)[C@@H]1O [5'-N-Methyl carboxamidoadenosine]
remaining activity at 1.25 µM ([1]; Well no.=14, low concentration screen): 101% | remaining activity at 3.75 µM ([2]; Well no.=14, high concentration screen): 98%

NC(=O)CI [Iodoacetamide]
remaining activity at 1.25 µM ([1]; Well no.=430, low concentration screen): 104% | remaining activity at 3.75 µM ([2]; Well no.=430, high concentration screen): 96.4%

Nc1ccn([C@@H]2O[C@H](CO)[C@@H](O)C2(F)F)c(=O)n1 [Gemcitabine]
remaining activity at 1.25 µM ([1]; Well no.=1906, low concentration screen): 97.8% | remaining activity at 1.25 µM ([1]; Well no.=8054, low concentration screen): 92.7% | remaining activity at 3.75 µM ([2]; Well no.=1906, high concentration screen): 98.5% | remaining activity at 3.75 µM ([2]; Well no.=8054, high concentration screen): 95%

C[N+]1(C)[C@@H]2C[C@@H](OC(=O)C(O)(c3cccs3)c3cccs3)C[C@H]1[C@@H]1O[C@@H]12 [Tiotropium Bromide]
remaining activity at 1.25 µM ([1]; Well no.=2108, low concentration screen): 102% | remaining activity at 3.75 µM ([2]; Well no.=2108, high concentration screen): 102%

CC[C@H](C)[C@H](NC(=O)[C@H](Cc1ccc(O)cc1)NC(=O)[C@@H](NC(=O)[C@H](CCCNC(=N)N)NC(=O)[C@@H](N)CC(=O)O)C(C)C)C(=O)N[C@@H](Cc1cnc[nH]1)C(=O)N1CCC[C@H]1C(=O)N[C@@H](Cc1ccccc1)C(=O)O [Angiotensin II human]
remaining activity at 1.25 µM ([1]; Well no.=8345, low concentration screen): 93.9% | remaining activity at 3.75 µM ([2]; Well no.=8345, high concentration screen): 97.1%

CC1=C(/C=C/C(C)=C/C=C/C(C)=C/C(=O)Nc2ccc(O)cc2)C(C)(C)CCC1 [Fenretinide]
remaining activity at 1.25 µM ([1]; Well no.=1577, low concentration screen): 92.1% | remaining activity at 3.75 µM ([2]; Well no.=1577, high concentration screen): 92.2%

O=C(O)C=Cc1cc(Br)c(Br)c(Br)c1Br [Casein Kinase II Inhibitor III, TBCA]
remaining activity at 1.25 µM ([1]; Well no.=2374, low concentration screen): 102% | remaining activity at 3.75 µM ([2]; Well no.=2374, high concentration screen): 104%

CN(C)N(C)C(=O)[C@@]1(Cc2ccccc2)CCCN(C(=O)[C@@H](Cc2c[nH]c3ccccc23)NC(=O)C(C)(C)N)C1 [Anamorelin (hydrochloride)]
remaining activity at 1.25 µM ([1]; Well no.=7291, low concentration screen): 98.3% | remaining activity at 3.75 µM ([2]; Well no.=7291, high concentration screen): 97.8%

Cc1ccc2c(=O)c3ccccc3n(CCCN)c2c1C [ER 27319 maleate - 10-(3-Aminopropyl)-3,4-dimethyl-9(10H)-acridinone maleate]
remaining activity at 1.25 µM ([1]; Well no.=2536, low concentration screen): 98.5% | remaining activity at 3.75 µM ([2]; Well no.=2536, high concentration screen): 99.3%

CCCCC/C=C/C/C=C/CCCCCCCC(=O)O [9(E),12(E)-Octadecadienoic acid]
remaining activity at 1.25 µM ([1]; Well no.=4356, low concentration screen): 105% | remaining activity at 3.75 µM ([2]; Well no.=4356, high concentration screen): 104%

C[n+]1cc2c3c(ccc2c2ccc4cc5c(cc4c21)OCO5)OCO3 [Sanguinarine chloride]
remaining activity at 1.25 µM ([1]; Well no.=1458, low concentration screen): 87.2% | remaining activity at 3.75 µM ([2]; Well no.=1458, high concentration screen): 86.2%

O=C1C[C@@H]2OCC=C3CN4CC[C@]56c7ccccc7N1[C@H]5[C@H]2[C@H]3C[C@H]46
remaining activity at 1.25 µM [1]: 94.4% | remaining activity at 3.75 µM [2]: 94.7%

COC(=O)Nc1nc2cc(Sc3ccccc3)ccc2[nH]1 [Fenbendazole]
remaining activity at 1.25 µM ([1]; Well no.=2076, low concentration screen): 105% | remaining activity at 3.75 µM ([2]; Well no.=2076, high concentration screen): 102%
